Measured values from PubChem BioAssay (NCI).
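Tested at 5 concentrations; 48 h exposure; 96-well plates; endpoints linearly interpolated, else capped at highest concentration. GI50: concentration for 50% inhibition of growth. At the TGI there is no net growth.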

Experiments:
Assay in all cases: DTP human tumour cell line panel, 48 h
ACHN renal = system: ACHN renal
DU-145 prostate = system: DU-145 prostate
HL-60(TB) leukemia = system: HL-60(TB) leukemia
M14 melanoma = system: M14 melanoma
MDA-MB-231 breast = system: MDA-MB-231 breast
SNB-19 CNS = system: SNB-19 CNS
T-47D breast = system: T-47D breast
UACC-62 melanoma = system: UACC-62 melanoma

| Compound | GI50 (ACHN renal) [µM] | TGI (ACHN renal) [µM] | GI50 (DU-145 prostate) [µM] | TGI (DU-145 prostate) [µM] | GI50 (HL-60(TB) leukemia) [µM] | TGI (HL-60(TB) leukemia) [µM] | GI50 (M14 melanoma) [µM] | TGI (M14 melanoma) [µM] | GI50 (MDA-MB-231 breast) [µM] | TGI (MDA-MB-231 breast) [µM] | GI50 (SNB-19 CNS) [µM] | TGI (SNB-19 CNS) [µM] | GI50 (T-47D breast) [µM] | TGI (T-47D breast) [µM] | GI50 (UACC-62 melanoma) [µM] | TGI (UACC-62 melanoma) [µM] |
| --- | --- | --- | --- | --- | --- | --- | --- | --- | --- | --- | --- | --- | --- | --- | --- | --- |
| O=C(CCl)Nc1ccc(Cc2ccc(NC(=O)CCl)cc2)cc1 | 1.56 | 3.03 | 2.85 | 11 | 2.07 | 4.84 | 1.23 | 3.2 | 1.54 | 5.06 | 1.8 | 5.14 | 1.65 | 4.67 | 1.53 | 3.34 |
| CC[Si](CC)(CC)OC1[C@@H](O[Si](CC)(CC)CC)[C@@H](CNC(=O)NC)O[C@H]1n1cnc2c(NC(=O)Nc3ccccc3)ncnc21 (some centres undefined) | 3.44 | > 100 | 4.41 | > 100 | 2.49 | 6.32 | 3.75 | > 100 | 4.18 | 56.1 | 5.28 | > 100 | 4.47 | > 100 | 2.88 | 25.7 |
| OCC1OC(n2cnc3c(NCc4ccco4)ncnc32)C(O)C1O (centres undefined) | 0.542 | > 100 | 1.27 | 4.14 | 0.724 | 3.48 | 2.44 | 17.2 | 0.348 | 18.8 | 3.99 | > 100 | 2.43 | 11.3 | 3.34 | 29.7 |
| CC(C)(C)OC1=C(OC(C)(C)C)C(O)(c2ccc(Cl)cc2)C1=O (centres undefined) | – | > 100 | – | – | – | > 100 | – | > 100 | – | – | – | > 100 | – | – | – | > 100 |
| CCS(=O)(=O)N1CCN(c2ccc(Nc3ncc(C(N)=O)c(NC4CC4)n3)cc2)CC1 | 12.5 | 82.8 | 8.63 | > 100 | – | – | 3.23 | 69 | 22.8 | > 100 | 38 | > 100 | 2.88 | 13.9 | 15.7 | 44 |
| Cc1cn2c(/C=C3\C(=O)N(C)c4ccc(Cl)cc43)c(C)nc2s1 | 4.62 | 32.6 | – | – | 3.36 | > 100 | 3.3 | 32.1 | 4.5 | 23.5 | 4.25 | 92.9 | > 100 | > 100 | 3.7 | > 100 |
| C=C1C(O)C2CC(C)(C)C(=O)C2=C(CC(C)C)C12CC2 (centres undefined) | > 100 | > 100 | > 100 | > 100 | – | – | > 100 | > 100 | > 100 | > 100 | > 100 | > 100 | > 100 | > 100 | > 100 | > 100 |
| CN(C)CCNC(=O)c1cccc2c1nc(-c1ccncc1)c1ccccc12 | – | 10.6 | – | – | – | > 100 | – | 16.8 | – | – | – | 27.2 | – | – | – | 6.44 |
| COc1cc(NCCC2CCCCN2)c2ncccc2c1OC (centres undefined) | 21.2 | 89.9 | 13.1 | 26.9 | – | – | 16.5 | 36.3 | 3.02 | 12.5 | 18.7 | 42.3 | 2.91 | 14.4 | 2.24 | 6.19 |
| CC(=O)O[C@H]1CC[C@]2(C)C3C(=O)C[C@]4(C)[C@@H](C(C)CCC(=O)O)CC[C@@]4(C)[C@@H]3CC[C@H]2C1(C)C (some centres undefined) | 10.7 | 35.4 | 19.7 | > 50 | 8.65 | > 50 | 20.5 | > 50 | > 50 | > 50 | 21 | > 50 | – | – | 21.7 | > 50 |
| CC(=O)c1ccc(Oc2c3ccccc3nc3occc23)cc1 | 3.57 | > 100 | 15.6 | > 100 | 8.43 | > 100 | 6.81 | > 100 | – | – | 7.98 | > 100 | 8.21 | > 100 | 2.11 | 7.95 |
| O=C(c1ccc(Nc2nccc(NCCCCNc3ccnc4cc(Cl)ccc34)n2)cc1)N1CCCCC1 | 3.32 | 11.3 | 3.53 | 14.3 | – | – | 1.71 | 3.43 | 1.86 | 4.97 | 3.89 | 21.1 | 2.08 | 5.6 | – | – |
| COc1cccc(-c2nn(-c3ccccc3)cc2-c2ccnc(NCCCNS(=O)(=O)c3ccc(C(F)(F)F)cc3)c2)c1 | 4.8 | > 100 | 22.7 | > 100 | 3.97 | > 100 | 4.46 | > 100 | 4.98 | > 100 | – | – | 2.54 | 9.11 | 7.08 | > 100 |
| Nc1cc(N)c2nc(-c3ccccc3)c(NCc3ccc(Cl)c(Cl)c3)nc2c1 | – | – | 16.2 | 33.4 | 1.82 | 7.94 | 15.7 | 34.6 | 1.58 | 4.45 | 22.5 | 50.8 | 19.4 | 54.4 | 14 | 30.8 |
| C=C1C(=O)O[C@H]2[C@H]1CC/C(COC(=O)N[C@H](Cc1c[nH]c3ccccc13)C(=O)OC)=C\CC[C@@]1(C)O[C@@H]21 | 1.78 | 4.22 | 1.61 | 4.37 | – | – | 2.06 | 6.08 | 2 | 5.59 | 8.75 | 22.6 | 1.94 | 5.06 | 1.88 | 4.4 |
| N/C(=N/S(=O)(=O)c1cc(C(=O)Nc2ccc(F)cc2)c(Cl)cc1SCc1ccccc1)Nc1ccccc1O | 18.9 | > 100 | 1.83 | 3.56 | – | – | 3.87 | 14.4 | 1.54 | 3.1 | 4.29 | > 100 | 7.3 | 28.6 | 1.84 | 3.43 |
| CCOP(=O)(OCC)C(NC(c1ccccc1)c1ccccc1)c1ccc(C(C)C)cc1 (centres undefined) | 2.64 | 7.27 | 8.41 | 25.5 | – | – | 2.13 | 4.99 | 6.12 | 20.8 | 26.6 | > 100 | 6.65 | 41.3 | 10.4 | 22.9 |
